{"source": "patent US11364214B2", "about": "“Compositions and methods for treating eczema” (Dermala Inc., priority 2016, dated 2022)", "key": {"[1]": {"test_system": "S. aureus (ATCC 29213)", "experiment": "Minimal inhibitory concentration (MIC) assay, microbroth dilution (CLSI M100-S22)", "format": "cell-based", "details": "Staphylococcus aureus, ATCC29213; no esterase added; 10% DMSO; 16 hours at 37° C.; first well showing ≥90% reduction in growth; read-out: MIC against S. aureus"}, "[2]": {"test_system": "S. aureus (ATCC 29213)", "experiment": "Time-kill assay (bactericidal activity)", "format": "cell-based", "description": "This inoculum preparation was used for all experiments. Time-kill assay: A time-kill assay was performed to monitor the bactericidal activity of propionic acid (PA). […] Assays were performed in 100 μl volumes in 96-well plates and incubated at 37° C. in a sealed bag to prevent evaporation. […] Bacterial growth was determined by counting CFUs. […] The assay was setup and evaluated as described above."}, "[3]": {"test_system": "S. aureus", "details": "Shu et al. 2013; Wang et al. 2014; cited from earlier work"}}, "data": [{"molecule": "CCC(=O)O", "note": "[PA, propionic acid]", "values": [{"measurement": "MIC", "setting": "[1]", "result": 15, "unit": "mM"}, {"measurement": "time after which bactericidal against S. aureus", "setting": "[2]; 4× the MIC (MIC 15 mM), sampled at 0, 1, 7, 24 hours, FIG. 2", "result": 7, "unit": "h"}, {"measurement": "time after which S. aureus is completely killed", "setting": "[2]; 4× the determined MIC, 0.2 mg/ml porcine liver esterase, sampled at 0, 1, 5, 24 hours, FIG. 4", "result": 5, "unit": "h"}, {"measurement": "growth of S. aureus (literature)", "setting": "[3]", "result": "inhibit growth of S. aureus"}]}]}
